Assays:
[1] = test system: Botrytis cinerea, Cladosporium cladosporiodes, and Monilinia fructicola spores; assay: Spore germination inhibition, overall rating over the three fungi; format: cell-based; conditions: sum of all the germination scores; maximum 12 (greatest inhibition), minimum 0
Experimental: (§1) The effect of selected treatments on the germination of three other important horticultural fungi, Botrytis cinerea (causal agent of grey mould on grapes, kiwifruit, tomatoes, strawberries, etc), Monilinia fructicola (causal agent of brown rot on stonefruit), and Cladosporium cladosporiodes (one of the fungi that can cause sooty mould) were also assessed using the 96-multiwell assay of Wilson et al (10).
The Overall Rating is the sum of all the germination scores for each treatment (maximum possible value: 12 (greatest inhibition); minimum: 0 (no inhibition)).

[2] = test system: Squash (Cucurbita maxima) cv ‘Delica’; assay: Trial 3 leaf health rating and phyto-toxicity; format: in vivo; set-up: key: A: Perfect condition - no abiotic or biotic blemishes.; B: Small blemishes e.g. chlorotic patches, rubbing, insect damage; C: Severe/advanced chlorosis, necrosis or leaf distortion; D: Leaf dead
Experimental: Qualitative assessments of leaf health/condition were made at the same time as disease severity assessments, using the arbitrary scale described below.
Leaf health ratings were assessed using the criteria described in Table 4. Each value presented in Table 12 is a median value rather than an arithmetic mean.

[3] = test system: cucurbit PM pathogen Sphaerotheca fuliginea; assay: Trial 3 additional treatments, PM disease severity on ‘Delica’ squash leaves; format: in vivo; conditions: non-inoculated leaves (FIG. 7)
From the text: Treatments were first applied 3 days after artificial inoculation of leaf 1, and at weekly intervals thereafter. There were 4 replicates per treatment, with two replicates per table per glasshouse.

[4] = test system: Botrytis cinerea spores; assay: Spore germination inhibition, 96-multiwell assay; format: cell-based; set-up: key: ****: No germination (score 4); ***: Slight germination (3); **: Moderate germination (2); *: Germination, less than control (1); —: No activity = germination same as the control (score 0); conditions: after 24 hours incubation at 19° C.
Experimental: as §1

[5] = test system: Monilinia fructicola spores; assay: Spore germination inhibition, 96-multiwell assay; format: cell-based; set-up: key: ****: No germination (score 4); ***: Slight germination (3); **: Moderate germination (2); *: Germination, less than control (1); —: No activity = germination same as the control (score 0); conditions: after 24 hours incubation at 19° C.
Experimental: as §1

[6] = test system: Cladosporium cladosporiodes spores; assay: Spore germination inhibition, 96-multiwell assay; format: cell-based; set-up: key: ****: No germination (score 4); ***: Slight germination (3); **: Moderate germination (2); *: Germination, less than control (1); —: No activity = germination same as the control (score 0); conditions: after 24 hours incubation at 19° C.
Experimental: as §1

[7] = test system: cucurbit PM pathogen Sphaerotheca fuliginea; assay: Trial 3 main treatments, PM disease severity on ‘Delica’ squash leaves; format: in vivo
Experimental: Squash (Cucurbita maxima) cv ‘Delica’ were raised and the first true leaf on each plant was artificially inoculated as in Trial 1.
Treatment applications were normally at 7-day intervals (although 14 and 21 day intervals were also used in Trial 3) and involved spraying all leaves to run-off (approximately 5 ml per leaf) using hand-held mister-bottles. The first application commenced 3-4 days after artificial inoculation (except for elicitor treatments in Trial 3), when the non-inoculated leaves on plants were still largely disease-free, and plants had up to 8 true leaves (i.e. were 5-6 weeks old).
Disease severity on true leaves 1-8 was rated weekly or fortnightly as discussed above.
Data were analysed as a repeated measures design (RMD) to determine the treatment effect on disease severity over time. Treatment differences at final disease assessment were also assessed as a randomised block design (RBD), by analysis of variance (ANOVA), with means separation by Fisher's Least Significant Difference (LSD) (P<0.05), using SAS software, version 8.01 TS (SAS Institute, Cary, N.C.).
Eight replicate squash plants per treatment (1 replicate per block) were assessed.
The first true leaf of each plant was artificially inoculated with PM, while all other leaves on the plant were allowed to infect naturally. Elicitors (treatments 13-15) were first applied 5 days before artificial inoculation, to allow time for induction of host defences prior to advent of the PM fungus, and every three weeks thereafter. […] All other treatments were first applied 3 days after artificial inoculation and at weekly (treatments 1-4, 7-8, 10-12, 16-20), fortnightly (treatment 5), or 3 weekly intervals (treatments 6 and 9) thereafter.
Treatment effect over time at 0, 2, 4, 6 and 7 weeks was assessed.

| Molecule | Overall Rating [1] | leaf health rating ([2]; Trial 3 additional, non-inoculated leaves, after 7 weeks) | course of PM disease severity over time [3] | Germination inhibition, Botrytis [4] | Germination inhibition, Monilinia [5] | Germination inhibition, Clado. [6] | leaf health rating ([2]; Trial 3 main, non-inoculated leaves after 7 weeks of treatment application, median value) | course of PM disease over time ([7]; inoculated leaves) | PM Disease Rating ([7]; inoculated leaves, 0 wks, scale 0-6 of Table 1) | PM Disease Rating ([7]; inoculated leaves, 2 wks) | PM Disease Rating ([7]; inoculated leaves, 4 wks) | PM Disease Rating ([7]; inoculated leaves, 6 wks) | PM Disease Rating ([7]; inoculated leaves, 7 wks) | course of natural PM infections over time ([7]; non-inoculated leaves, 0-7 weeks) | PM Disease Rating ([7]; non-inoculated leaves, 0 wks, scale 0-6 of Table 1) | PM Disease Rating ([7]; non-inoculated leaves, 2 wks) | PM Disease Rating ([7]; non-inoculated leaves, 4 wks) | PM Disease Rating ([7]; non-inoculated leaves, 6 wks) | PM Disease Rating ([7]; non-inoculated leaves, 7 wks) |
| --- | --- | --- | --- | --- | --- | --- | --- | --- | --- | --- | --- | --- | --- | --- | --- | --- | --- | --- | --- |
| Di-glycerine-mono-laurate [DGML] | 10 | E | increased significantly over time | ** | **** | **** |  |  |  |  |  |  |  |  |  |  |  |  |  |
| CCCCC/C=C\C/C=C\CCCCCCCC(=O)O [Linol, Linoleic acid] | 0 |  |  | — | — | — | F (More than 20% of the leaf area is dead) | disease increased steadily throughout the trial | 2.63 | 5.25 | 5.88 | 6.00 | 6.00 | rapid breakdown in protective activity | 0.63 | 2.77 | 5.56 | 6.00 | 6.00 |

Source: patent publication US20080233202A1, “Fungicidal Compositions” (priority 2004, published 2008)
